In the first assay the target is DOT1L(1-416) (Homo sapiens, UniProt Q8TEK3). Put plainly: Determination of IC50: DOT1L(1-416) methyltransferase assay, 3H-SAM, oligonucleosome substrate, Flashplate. In kind it is biochemical. The note with it: DOT1L IC50, class symbols. Summed up: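 Compounds in 10-point 3-fold DMSO dilutions were tested in reactions started with substrate mix of 200 nM [3H]-SAM, 600 nM unlabeled SAM and 20 nM oligonucleosome. Reactions ran 120 min at room temperature and were quenched with 100 μM SAM. Labeled substrate was captured on streptavidin Flashplates and counted by scintillation to give IC50.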
Chain of DOT1L(1-416) (Q8TEK3 1-416): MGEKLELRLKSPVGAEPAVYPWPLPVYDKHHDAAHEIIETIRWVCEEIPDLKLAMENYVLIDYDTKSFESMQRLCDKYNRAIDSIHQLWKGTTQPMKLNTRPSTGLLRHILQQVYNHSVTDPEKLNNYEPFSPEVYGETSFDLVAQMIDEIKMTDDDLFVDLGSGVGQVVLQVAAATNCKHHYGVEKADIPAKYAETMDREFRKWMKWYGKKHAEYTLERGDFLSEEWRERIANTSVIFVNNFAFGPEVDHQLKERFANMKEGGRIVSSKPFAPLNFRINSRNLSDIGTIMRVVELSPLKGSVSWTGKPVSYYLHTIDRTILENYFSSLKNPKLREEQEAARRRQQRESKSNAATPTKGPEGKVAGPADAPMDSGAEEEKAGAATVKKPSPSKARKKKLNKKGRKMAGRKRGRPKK
The IC50 is the concentration that gives 50% inhibition. As to `CC(C)[N+]([O-])(C[C@H]1O[C@@H](n2cnc3c(N)ncnc32)[C@H](O)[C@@H]1O)[C@H]1C[C@@H](CCc2nc3cc(C(C)(C)C)ccc3[nH]2)C1` (stereo partly drawn) [Compound 106, (1r,3S)-N-(((2R,3S,4R,5R)-5-(6-amino-9H-purin-9-yl)-3,4-dihydroxy-tetrahydrofuran-2-yl)methyl)-3-(2-(5-(tert-butyl)-1H-benzo[d]imidazol-2-yl)ethyl)-N-isopropyl-cyclobutanamine oxide], the 50% inhibitory concentration (IC50) was < 0.1 µM.

For the molecule `CC(C)[N+]([O-])(CC1O[C@@H](n2cnc3c(N)ncnc32)[C@H](O)[C@@H]1O)[C@H]1C[C@H](CCc2nc3cc(C(C)(C)C)ccc3[nH]2)C1` (stereo partly drawn) [Compound 107, (R,1s,3R)-N-(((2R,35,4R,5R)-5-(6-amino-9H-purin-9-yl)-3,4-dihydroxy-tetrahydrofuran-2-yl)methyl)-3-(2-(5-(tert-butyl)-1H-benzo[d]imidazol-2-yl)ethyl)-N-isopropyl-cyclobutanamine oxide], the IC50 is < 0.1 µM.

The assay is the same for the next values; noted with them: class symbols; read-out: DOT1L IC50.
Turning to `CN(C[C@H]1O[C@@H](n2ccc3c(N)ncnc32)[C@H](O)[C@@H]1O)[C@H]1C[C@@H](CCc2nc3cc(OC(F)(F)F)ccc3[nH]2)C1` [Compound 94, (2R,3R,4S,5R)-2-(4-amino-7H-pyrrolo[2,3-d]pyrimidin-7-yl)-5-((methyl((1r,3S)-3-(2-(5-(trifluoromethoxy)-1H-benzo[d]imidazol-2-yl)ethyl)cyclobutyl)amino)methyl) tetrahydrofuran-3,4-diol], the IC50 was < 0.1 µM.

As for `CN(C[C@H]1O[C@@H](n2ccc3c(N)ncnc32)[C@H](O)[C@@H]1O)[C@H]1C[C@H](CCc2nc3cc(OC(F)(F)F)ccc3[nH]2)C1` [Compound 95, (2R,3R,4S,5R)-2-(4-amino-7H-pyrrolo[2,3-d]pyrimidin-7-yl)-5-((methyl((1s,3R)-3-(2-(5-(trifluoromethoxy)-1H-benzo[d]imidazol-2-yl)ethyl)eyclobutyl)amino)methyl) tetrahydrofuran-3,4-diol], the IC50 is < 0.1 µM.

`CN(C[C@H]1O[C@@H](n2cnc3c(N)ncnc32)[C@H](O)[C@@H]1O)[C@H]1C[C@@H](CCc2nc3cc(OC(F)(F)F)ccc3[nH]2)C1` [Compound 96, (2R,3R,4S,5R)-2-(6-amino-9H-purin-9-yl)-5-((methyl((1r,3S)-3-(2-(5-(trifluoromethoxy)-1H-benzo[d]imidazol-2-yl)ethyl)cyclobutyl)amino)methyl)tetrahydrofuran-3,4-diol]: the half-maximal inhibitory concentration (IC50) is < 0.1 µM.

Take `CN(C[C@H]1O[C@@H](n2cnc3c(N)ncnc32)[C@H](O)[C@@H]1O)[C@H]1C[C@H](CCc2nc3cc(OC(F)(F)F)ccc3[nH]2)C1` [Compound 97]: the IC50 was < 0.1 µM.

`CC(C)(C)c1ccc2[nH]c(CC[C@H]3C[C@@H](NC[C@H]4O[C@@H](n5cnc6c(N)ncnc65)[C@H](O)[C@@H]4O)C3)nc2c1` [Compound 98, (2R,3R,4S,5R)-2-(6-amino-9H-purin-9-yl)-5-((((1r,3S)-3-(2-(5-(tert-butyl)-1H-benzo[d]imidazol-2-yl)ethyl)cyclobutyl)amino)methyl) tetrahydrofuran-3,4-diol]: the half-inhibitory concentration (IC50) is < 0.1 µM.

`CC(C)(C)c1ccc2[nH]c(CC[C@H]3C[C@H](NC[C@H]4O[C@@H](n5cnc6c(N)ncnc65)[C@H](O)[C@@H]4O)C3)nc2c1` [Compound 99, (2R,3R,4S,5R)-2-(6-amino-9H-purin-9-yl)-5-((((1s,3R)-3-(2-(5-(tert-butyl)-1H-benzo[d]imidazol-2-yl)ethyl)cyclobutyl)amino)methyl) tetrahydrofuran-3,4-diol]: the half-inhibitory concentration (IC50) is < 0.1 µM.

For the molecule `CC(C)N(C[C@@H]1C[C@@H](O)[C@H](n2ccc3c(N)ncnc32)C1)[C@H]1C[C@@H](CCc2nc3cc(C(C)(C)C)ccc3[nH]2)C1` [Compound 101, (1R,2R,4S)-2-(4-amino-7H-pyrrolo[2,3-d]pyrimidin-7-yl)-4-((((1r,3R)-3-(2-(5-(tert-butyl)-1H-benzo[d]imidazol-2-yl)ethyl)cyclobutyl) (isopropyl)amino)methyl)cyclopentanol], the half-inhibitory concentration (IC50) lay within 0.1 to 1 µM.

`CC(C)(C)c1ccc2[nH]c(CC[C@H]3C[C@@H](N(C[C@H]4O[C@@H](n5cnc6c(N)ncnc65)[C@H](O)[C@@H]4O)CC(F)(F)F)C3)nc2c1` [Compound 102, (2R,3R,4S,5R)-2-(6-amino-9H-purin-9-yl)-5-((((1r,3S)-3-(2-(5-(tert-butyl)-1H-benzo[d]imidazol-2-yl)ethyl)cyclobutyl) (2,2,2-trifluoroethyl)amino)methyl)tetrahydrofuran-3,4-diol]: the concentration for half-maximal inhibition (IC50) was 0.1 to 1 µM.

As for `CC(C)N(C[C@@H]1C[C@@H](O)[C@H](n2ccc3c(N)ncnc32)C1)[C@H]1C[C@H](CCc2nc3cc(Cl)c(C(F)(F)F)cc3[nH]2)C1` [Compound 103, (1R,2R,4S)-2-(4-amino-7H-pyrrolo[2,3-d]pyrimidin-7-yl)-4-((((1s,3S)-3-(2-(5-chloro-6-(trifluoromethyl)-1H-benzo[d]imidazol-2-yl)ethyl)cyclobutyl) (isopropyl)amino)methyl)cyclopentanol], the half-maximal inhibitory concentration (IC50) was 1 to 10 µM.

`CC(C)N(C[C@@H]1C[C@@H](O)[C@H](n2ccc3c(N)ncnc32)C1)[C@H]1C[C@H](CCc2nc3cc(C(C)(C)C)ccc3[nH]2)C1` [Compound 104, (1R,2R,4S)-2-(4-amino-7H-pyrrolo[2,3-d]pyrimidin-7-yl)-4-((((1s,3S)-3-(2-(5-(tert-butyl)-1H-benzo[d]imidazol-2-yl)ethyl)cyclobutyl) (isopropyl)amino)methyl)cyclopentanol]: the IC50 was in the range of 1 to 10 µM.

With `CC(C)N(C[C@@H]1C[C@@H](O)[C@H](n2ccc3c(N)ncnc32)C1)[C@H]1C[C@@H](CCc2nc3cc(Cl)c(C(F)(F)F)cc3[nH]2)C1` [Compound 105, (1R,2R,4S)-2-(4-amino-7H-pyrrolo[2,3-d]pyrimidin-7-yl)-4-((((1r,3R)-3-(2-(5-chloro-6-(trifluoromethyl)-1H-benzo[d]imidazol-2-yl)ethyl)cyclobutyl) (isopropyl)amino)methyl)cyclopentanol], the half-maximal inhibitory concentration (IC50) was 1 to 10 µM.

As to `CN(C[C@H]1O[C@@H](n2cnc3c(N)ncnc32)[C@H](O)[C@@H]1O)C1CC(CNC(=O)Nc2ccc(C(C)(C)C)cc2)C1` (stereo partly drawn) [Compound 110, 1-((3-((((2R,3S,4R,5R)-5-(6-amino-9H-purin-9-yl)-3,4-dihydroxytetrahydrofuran-2-yl)methyl)(methyl)amino)cyclobutyl)methyl)-3-(4-(tert-butyl)phenyl)urea], the IC50 is < 0.1 µM.

Turning to `CC(C)N(C[C@H]1O[C@@H](n2cnc3c(N)ncnc32)[C@H](O)[C@@H]1O)C1CC(CCc2nc3cc(C4CCC4)ccc3[nH]2)C1` (stereo partly drawn) [Compound 111, (2R,3R,4S,5R)-2-(6-amino-9H-purin-9-yl)-5-(((3-(2-(5-cyclobutyl-1H-benzo[d]imidazol-2-yl)ethyl)cyclobutyl) (isopropyl)amino)methyl)tetrahydrofuran-3,4-diol], the IC50 is < 0.1 µM.

As for `CC(C)N(C[C@H]1O[C@@H](n2cnc3c(N)ncnc32)[C@H](O)[C@@H]1O)C1CC(CCc2nc3cc(C4CC4)ccc3[nH]2)C1` (stereo partly drawn) [Compound 112, (2R,3R,4S,5R)-2-(6-amino-9H-purin-9-yl)-5-(((3-(2-(5-cyclopropyl-1H-benzo[d]imidazol-2-yl)ethyl)cyclobutyl) (isopropyl)amino)methyl)tetrahydrofuran-3,4-diol], the concentration for half-maximal inhibition (IC50) is < 0.1 µM.

For `CC(C)N(C[C@H]1O[C@@H](n2cnc3c(N)ncnc32)[C@H](O)[C@@H]1O)[C@H]1C[C@H](CCc2nc3cc(C4CCC4)ccc3[nH]2)C1` [Compound 114, (2R,3R,4S,5R)-2-(6-amino-9H-purin-9-yl)-5-((((1s,3R)-3-(2-(5-cyclobutyl-1H-benzo[d]imidazol-2-yl)ethyl)cyclobutyl) (isopropyl)amino)methyl)tetrahydrofuran-3,4-diol], the IC50 was < 0.1 µM.

As for `CC(C)N(C[C@H]1O[C@@H](n2cnc3c(N)ncnc32)[C@H](O)[C@@H]1O)[C@H]1C[C@@H](CCc2nc3cc(C4CCC4)ccc3[nH]2)C1` [Compound 115, (2R,3R,4S,5R)-2-(6-amino-9H-purin-9-yl)-5-((((1r,3S)-3-(2-(5-cyclobutyl-1H-benzo[d]imidazol-2-yl)ethyl)cyclobutyl) (isopropyl)amino)methyl)tetrahydrofuran-3,4-diol], the concentration for half-maximal inhibition (IC50) was < 0.1 µM.

Turning to `CC(C)N(C[C@H]1O[C@@H](n2cnc3c(N)ncnc32)[C@H](O)[C@@H]1O)[C@H]1C[C@@H](CCc2nc3cc(C4CC4)ccc3[nH]2)C1` [Compound 116, (2R,3R,4S,5R)-2-(6-amino-9H-purin-9-yl)-5-((((1r,3S)-3-(2-(5-cyclopropyl-1H-benzo[d]imidazol-2-yl)ethyl)cyclobutyl) (isopropyl)amino)methyl)tetrahydrofuran-3,4-diol], the 50% inhibitory concentration (IC50) was < 0.1 µM.

Take `CC(C)N(C[C@H]1O[C@@H](n2cnc3c(N)ncnc32)[C@H](O)[C@@H]1O)C1CC(CCc2nc3cc(C4(C#N)CCC4)ccc3[nH]2)C1` (stereo partly drawn) [Compound 117, 1-(2-(2-(3-((((2R,3S,4R,5R)-5-(6-amino-9H-purin-9-yl)-3,4-dihydroxytetrahydro-furan-2-yl)methyl)(isopropyl)amino)cyclobutyl)ethyl)-1H-benzo[d]imidazol-5-yl)cyclo-butanecarbonitrile]: the IC50 was < 0.1 µM.

In the case of `COCC(C)(C)c1ccc2[nH]c(CCC3CC(N(C[C@H]4O[C@@H](n5cnc6c(N)ncnc65)[C@H](O)[C@@H]4O)C(C)C)C3)nc2c1` (stereo partly drawn) [Compound 118, (2R,3R,4S,5R)-2-(6-amino-9H-purin-9-yl)-5-((isopropyl(3-(2-(5-(1-methoxy-2-methylpropan-2-yl)-1H-benzo[d]imidazol-2-yl)ethyl)cyclobutyl)amino)methyl) tetrahydrofuran-3,4-diol], the IC50 is < 0.1 µM.

Consider `CC(C)N(C[C@H]1O[C@@H](n2cnc3c(N)ncnc32)[C@H](O)[C@@H]1O)[C@H]1C[C@H](CCc2nc3cc(C4CC4)ccc3[nH]2)C1` [Compound 119, (2R,3R,4S,5R)-2-(6-amino-9H-purin-9-yl)-5-((((1s,3R)-3-(2-(5-cyclopropyl-1H-benzo[d]imidazol-2-yl)ethyl)cyclobutyl) (isopropyl)amino)methyl)tetrahydrofuran-3,4-diol], for which the IC50 was < 0.1 µM.

The values are drawn from patent US8580762B2, “Substituted purine and 7-deazapurine compounds” (Epizyme, Inc., priority 2010, dated 2013).
